Data as given in ChEMBL document CHEMBL5550201, “Discovery of a Highly Potent, Selective and Efficacious USP7 Degrader for the Treatment of Acute Lymphoblastic Leukemia” (J Med Chem, 2024).
Calls of active or inactive are those of the source. The rule behind the calls is not given here.

Experiments:
RS4-11 [1] = experiment: Upregulation of p53 protein expression in human RS4-11 cells measured after 12 hrs incubation by Western blot analysis; type: functional, cell-based; details: dose 10-100 nM
RS4-11 [2] = experiment: Induction of apoptosis in human RS4-11 cells assessed as necrotic cells at 1 nM measured after 72 hrs by FITC-annexin-V/PI analysis (reference value: 0%); type: functional
[3] = biological target: T1, von Hippel-Lindau disease tumor suppressor/Ubiquitin carboxyl-terminal hydrolase 7 (Homo sapiens, UniProt Q93009+P40337); experiment: PROTACT activity at USP7/VHL in human RS4;11 cells assessed as protein degradation at 100 nM measured after 24 hrs by Western blot analysis relative to control; type: cell-based
Target sequence in this assay (P40337 whole entry, looked up): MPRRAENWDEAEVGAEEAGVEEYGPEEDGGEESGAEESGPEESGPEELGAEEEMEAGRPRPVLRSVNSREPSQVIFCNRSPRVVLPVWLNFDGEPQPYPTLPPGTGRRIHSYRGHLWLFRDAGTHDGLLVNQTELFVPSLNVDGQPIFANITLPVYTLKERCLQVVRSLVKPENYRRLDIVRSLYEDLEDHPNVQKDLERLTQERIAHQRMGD
Target sequence in this assay (Q93009 whole entry, looked up): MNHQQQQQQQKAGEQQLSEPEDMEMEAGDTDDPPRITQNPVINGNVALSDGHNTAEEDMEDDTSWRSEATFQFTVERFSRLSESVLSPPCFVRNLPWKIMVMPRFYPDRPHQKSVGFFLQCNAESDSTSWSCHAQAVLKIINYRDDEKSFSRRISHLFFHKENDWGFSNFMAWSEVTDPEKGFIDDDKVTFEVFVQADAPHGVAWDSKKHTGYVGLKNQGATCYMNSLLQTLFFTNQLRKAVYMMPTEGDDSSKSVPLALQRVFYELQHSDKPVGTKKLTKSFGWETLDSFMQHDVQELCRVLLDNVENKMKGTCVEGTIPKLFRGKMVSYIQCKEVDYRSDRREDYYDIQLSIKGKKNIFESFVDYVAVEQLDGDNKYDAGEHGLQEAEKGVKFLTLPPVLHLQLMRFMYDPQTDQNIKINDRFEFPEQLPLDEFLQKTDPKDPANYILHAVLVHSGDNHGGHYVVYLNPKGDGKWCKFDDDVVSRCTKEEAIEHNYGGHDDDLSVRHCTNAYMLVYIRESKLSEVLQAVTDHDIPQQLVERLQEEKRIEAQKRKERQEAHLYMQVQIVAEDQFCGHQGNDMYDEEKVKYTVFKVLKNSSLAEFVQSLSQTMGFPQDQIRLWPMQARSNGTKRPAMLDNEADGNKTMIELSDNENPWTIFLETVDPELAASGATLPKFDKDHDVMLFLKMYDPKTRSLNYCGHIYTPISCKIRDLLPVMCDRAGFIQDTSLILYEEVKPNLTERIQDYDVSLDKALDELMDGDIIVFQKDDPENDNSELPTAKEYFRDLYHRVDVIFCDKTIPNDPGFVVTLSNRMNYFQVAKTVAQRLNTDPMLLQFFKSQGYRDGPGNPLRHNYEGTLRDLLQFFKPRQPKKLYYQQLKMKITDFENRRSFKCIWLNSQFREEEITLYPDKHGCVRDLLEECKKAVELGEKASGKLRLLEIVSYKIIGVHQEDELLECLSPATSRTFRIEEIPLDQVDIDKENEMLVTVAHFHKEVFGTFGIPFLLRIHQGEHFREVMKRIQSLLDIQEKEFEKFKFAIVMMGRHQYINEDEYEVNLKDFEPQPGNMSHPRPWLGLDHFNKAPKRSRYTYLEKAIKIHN

RS4-11 [4] = experiment: Antitumor activity against human RS4-11 cells xenografted in NOD/SCID mouse model assessed as decrease in USP7 level in tumor at 5 to 20 mg/kg, ip daily measured after 18 days relative to control; type: functional, organism-based; details: dose 5-20 mg/kg, time 18.0 day
RS4-11 [5] = experiment: Induction of apoptosis in human RS4-11 cells assessed as early apoptotic cells at 10 nM measured after 72 hrs by FITC-annexin-V/PI analysis (reference value: 5.36%); type: functional
[6] = biological target: T1, von Hippel-Lindau disease tumor suppressor/Ubiquitin carboxyl-terminal hydrolase 7; experiment: PROTACT activity at USP7/VHL in human RS4;11 cells assessed as protein degradation at 10 to 100 nM measured after 12 hrs by Western blot analysis; type: cell-based; details: dose 10-100 nM
Target sequence in this assay (P40337 whole entry, looked up): as the sequence (P40337 whole entry, looked up) above
Target sequence in this assay (Q93009 whole entry, looked up): as the sequence (Q93009 whole entry, looked up) above

[7] = biological target: T1, von Hippel-Lindau disease tumor suppressor/Ubiquitin carboxyl-terminal hydrolase 7; experiment: PROTACT activity at USP7/VHL in human RS4;11 cells assessed as protein degradation at 10 nM measured after 6 hrs in presence of proteasome inhibitors PS-341 by Western blot analysis; type: cell-based
Target sequence in this assay (P40337 whole entry, looked up): as the sequence (P40337 whole entry, looked up) above
Target sequence in this assay (Q93009 whole entry, looked up): as the sequence (Q93009 whole entry, looked up) above

REH = experiment: Antiproliferative activity against human REH cells with wild type p53 assessed as cell viability measured after 3 days by PMS-MTS assay; type: functional, cell-based; details: 72 h
RS4-11 [8] = experiment: Induction of apoptosis in human RS4-11 cells assessed as late apoptotic cells at 1000 nM measured after 72 hrs by FITC-annexin-V/PI analysis (reference value: 3.23%); type: functional
RS4-11 [9] = experiment: Induction of cell cycle arrest in human RS4-11 cells assessed as assessed as accumulation cells at G1/G0 phase measured after 12 hrs by flow cytometry; type: functional, cell-based; details: dose 1-1000 nM
RS4-11 [10] = experiment: Antitumor activity against human RS4-11 cells xenografted in NOD/SCID mouse model assessed as tumor growth inhibition at 5 mg/kg, ip daily measured after 18 days relative to control; type: functional; details: RS4-11, 432 h, time 18 day, read-out: TGI
RS4-11 [11] = experiment: Upregulation of p21 protein expression in human RS4-11 cells measured after 12 hrs incubation by Western blot analysis; type: functional, cell-based; details: dose 10-100 nM
RS4-11 [12] = experiment: Induction of apoptosis in human RS4-11 cells assessed as early apoptotic cells at 1000 nM measured after 72 hrs by FITC-annexin-V/PI analysis (reference value: 5.36%); type: functional
RS4-11 [13] = experiment: Induction of apoptosis in human RS4-11 cells assessed as necrotic cells at 10 nM measured after 72 hrs by FITC-annexin-V/PI analysis (reference value: 0%); type: functional
[14] = biological target: T1, von Hippel-Lindau disease tumor suppressor/Ubiquitin carboxyl-terminal hydrolase 7; experiment: PROTACT activity at USP7/VHL in human RS4;11 cells assessed as protein degradation at 10 nM measured after 6 hrs in presence of VHL-binder by Western blot analysis; type: cell-based
Target sequence in this assay (P40337 whole entry, looked up): as the sequence (P40337 whole entry, looked up) above
Target sequence in this assay (Q93009 whole entry, looked up): as the sequence (Q93009 whole entry, looked up) above

[15] = biological target: T1, von Hippel-Lindau disease tumor suppressor/Ubiquitin carboxyl-terminal hydrolase 7; experiment: PROTACT activity at USP7/VHL in human RS4;11 cells assessed as selective USP7 degradation at 100 nM measured after 4 hrs by proteomics analysis; type: cell-based
Target sequence in this assay (P40337 whole entry, looked up): as the sequence (P40337 whole entry, looked up) above
Target sequence in this assay (Q93009 whole entry, looked up): as the sequence (Q93009 whole entry, looked up) above

[16] = Toxicity in NOD/SCID mouse xenografted with human RS4-11 cells assessed as signs of toxicity at 5 to 20 mg/kg, ip daily measured after 18 days relative to control; type: organism-based; details: in vivo, 432 h, dose 5-20 mg/kg, time 18 day
[17] = biological target: T1, von Hippel-Lindau disease tumor suppressor/Ubiquitin carboxyl-terminal hydrolase 7; experiment: PROTACT activity at USP7/VHL in human RS4;11 cells assessed as protein degradation measured after 24 hrs by Western blot analysis; type: cell-based
Target sequence in this assay (Q93009 whole entry): as the sequence (Q93009 whole entry, looked up) above
Target sequence in this assay (P40337 whole entry): as the sequence (P40337 whole entry, looked up) above

[18] = Toxicity in NOD/SCID mouse xenografted with human RS4-11 cells assessed as body weight change at 5 to 20 mg/kg, ip daily measured after 18 days relative to control; type: organism-based; details: in vivo, 432 h, dose 5-20 mg/kg, time 18 day
RS4-11 [19] = experiment: Induction of apoptosis in human RS4-11 cells assessed as viable cells at 1000 nM measured after 72 hrs by FITC-annexin-V/PI analysis (reference value: 91.41%); type: functional; details: read-out: Activity
RS4-11 [20] = experiment: Antiproliferative activity against human RS4-11 cells with wild type p53 assessed as cell viability measured after 3 days by PMS-MTS assay; type: functional, cell-based; details: RS4-11, 72 h
RS4-11 [21] = experiment: Antitumor activity against human RS4-11 cells xenografted in NOD/SCID mouse model assessed as tumor growth inhibition at 20 mg/kg, ip daily measured after 18 days relative to control; type: functional; details: RS4-11, 432 h, time 18 day, read-out: TGI
RS4-11 [22] = experiment: Induction of apoptosis in human RS4-11 cells assessed as early apoptotic cells at 1 nM measured after 72 hrs by FITC-annexin-V/PI analysis (reference value: 5.36%); type: functional
[23] = biological target: T1, von Hippel-Lindau disease tumor suppressor/Ubiquitin carboxyl-terminal hydrolase 7; experiment: PROTACT activity at USP7/VHL in human OCI-Ly10 cells assessed as protein degradation at 10 to 100 nM measured after 12 hrs by Western blot analysis; type: cell-based; details: dose 10-100 nM
Target sequence in this assay (P40337 whole entry, looked up): as above
Target sequence in this assay (Q93009 whole entry, looked up): as the sequence (Q93009 whole entry, looked up) above

RS4-11 [24] = experiment: Antiproliferative activity against human RS4-11 cells with shp53 assessed as cell viability measured after 7 days by PMS-MTS assay; type: functional, cell-based; details: RS4-11, 168 h
[25] = biological target: T1, von Hippel-Lindau disease tumor suppressor/Ubiquitin carboxyl-terminal hydrolase 7; experiment: PROTACT activity at USP7/VHL in human RS4;11 cells assessed as protein degradation at 10 nM measured after 24 hrs by Western blot analysis relative to control; type: cell-based
[26] = biological target: T1, von Hippel-Lindau disease tumor suppressor/Ubiquitin carboxyl-terminal hydrolase 7; experiment: PROTACT activity at USP7/VHL in human RS4;11 cells assessed as protein degradation at 10 nM measured after 6 hrs in presence of proteasome inhibitors PS-171 by Western blot analysis; type: cell-based
RS4-11 [27] = experiment: Induction of apoptosis in human RS4-11 cells assessed as necrotic cells at 100 nM measured after 72 hrs by FITC-annexin-V/PI analysis (reference value: 0%); type: functional
RS4-11 [28] = experiment: Induction of apoptosis in human RS4-11 cells assessed as viable cells at 1 nM measured after 72 hrs by FITC-annexin-V/PI analysis (reference value: 91.41%); type: functional; details: read-out: Activity
RS4-11 [29] = experiment: Induction of apoptosis in human RS4-11 cells assessed as necrotic cells at 1000 nM measured after 72 hrs by FITC-annexin-V/PI analysis (reference value: 0%); type: functional
[30] = biological target: T1, von Hippel-Lindau disease tumor suppressor/Ubiquitin carboxyl-terminal hydrolase 7; experiment: PROTACT activity at USP7/VHL in human RS4;11 cells assessed as protein degradation at 10 nM measured after 6 hrs in presence of (R)-3-(4-(aminomethyl)phenyl)-6-((4-hydroxy-1-(3-phenylbutanoyl)piperidin-4-yl)methyl)-2-methyl-2,6-dihydro-7H-pyrazolo[4,3-d]pyrimidin-7-one by Western blot analysis; type: cell-based
[31] = biological target: T1, von Hippel-Lindau disease tumor suppressor/Ubiquitin carboxyl-terminal hydrolase 7; experiment: PROTACT activity at USP7/VHL in human REH cells assessed as protein degradation at 10 to 100 nM measured after 12 hrs by Western blot analysis; type: cell-based; details: dose 10-100 nM
RS4-11 [32] = experiment: Induction of apoptosis in human RS4-11 cells assessed as viable cells at 10 nM measured after 72 hrs by FITC-annexin-V/PI analysis (reference value: 91.41%); type: functional; details: read-out: Activity

With `Cc1ncsc1-c1ccc([C@H](C)NC(=O)[C@@H]2C[C@@H](O)CN2C(=O)[C@@H](c2cc(N3CCN(Cc4ccc(-c5c6ncn(CC7(O)CCN(C(=O)C[C@@H](C)c8ccccc8)CC7)c(=O)c6nn5C)cc4)CC3)no2)C(C)C)cc1` the Activity (RS4-11 [1]) was “Dose-Dependent Effect”, the Activity (RS4-11 [2]) was 0% and the Activity [3] was 91.7%. For the same molecule, the Activity (RS4-11 [4]) was “Active”, the Activity (RS4-11 [5]) was 17.36% and the Activity [6] was “Active”. For the same molecule, the Activity [7] was “inactive”, the IC50 (REH) was 8.3 nM and the Activity (RS4-11 [8]) was 24.89%. For the same molecule, the Activity (RS4-11 [9]) was “Dose-Dependent Effect”, the inhibition in vivo at 5 mg/kg (RS4-11 [10]) was 64.7% and the Activity (RS4-11 [11]) was “Dose-Dependent Effect”. The Activity (RS4-11 [12]) was 19.81%, the Activity (RS4-11 [13]) was 0.01% and the Activity [14] was “inactive”. The Activity [15] was “Active”, the Activity [16] was “Non-Toxic” and the DC50 [17] was 0.74 nM. For the same molecule, the Activity [18] was “Non-Toxic”, the viability at 1 µM (RS4-11 [19]) was 55.3% and the IC50 (RS4-11 [20]) was 0.5 nM. The inhibition in vivo at 20 mg/kg (RS4-11 [21]) was 78.7%, the Activity (RS4-11 [22]) was 12.45% and the Activity [23] was “Active”. For the same molecule, the IC50 (RS4-11 [24]) was > 20000 nM, the Activity [25] was 91.6% and the Activity [26] was “inactive”. For the same molecule, the Activity (RS4-11 [27]) was 0.01%, the viability at 0.001 µM (RS4-11 [28]) was 74.6% and the Activity (RS4-11 [29]) was 0%. For the same molecule, the Activity [30] was “inactive”, the Activity [31] was “Active” and the viability at 0.01 µM (RS4-11 [32]) was 65.7%.
